Test results: ChEMBL document CHEMBL2150920, “Discovery of a potent and selective small molecule hGPR91 antagonist” (Bioorg Med Chem Lett, 2011)
Activity calls are given as the source filed them. The calls are words filed in the database; no cut-off is given here.

What was measured:
[1] = target: T1, Succinate receptor 1 (Homo sapiens, UniProt Q9BXA5); experiment: Antagonist activity at human GPR91 receptor expressed in CHO-K1 cells co-expressing Galpha and Gqi5 G-protein assessed as inhibition of succinate-induced increase in intracellular calcium level by FLIPR assay; assay type: functional, cell-based
T1 sequence (Q9BXA5 whole entry): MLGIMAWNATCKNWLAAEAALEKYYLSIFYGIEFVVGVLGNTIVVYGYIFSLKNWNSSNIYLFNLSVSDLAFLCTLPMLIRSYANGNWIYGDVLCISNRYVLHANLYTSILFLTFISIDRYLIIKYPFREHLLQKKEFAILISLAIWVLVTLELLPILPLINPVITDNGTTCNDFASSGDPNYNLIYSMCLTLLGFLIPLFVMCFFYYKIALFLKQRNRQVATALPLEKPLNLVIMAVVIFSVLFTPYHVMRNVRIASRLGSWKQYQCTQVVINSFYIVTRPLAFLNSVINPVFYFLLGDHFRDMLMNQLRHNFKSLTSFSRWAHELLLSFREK

[2] = tested on: Liver microsomes; experiment: Intrinsic clearance in rat liver microsomes preincubated for 5 mins before addition of NADPH measured after 30 mins by LC/MS/MS analysis; assay type: ADME, Microsome; details: 0.5 h
[3] = target: T2, Succinate receptor 1 (Homo sapiens) (UniProt Q9BXA5); experiment: Antagonist activity at human GPR91 receptor expressed in CHO-K1 cells co-expressing Galpha and Gqi5 G-protein assessed as inhibition of succinate-induced increase in intracellular calcium level at 10 uM by FLIPR assay; assay type: functional, cell-based
T2 sequence (whole entry): T1 sequence (Q9BXA5 whole entry)

[4] = target: 2-oxoglutarate receptor 1 (Homo sapiens, UniProt Q96P68); experiment: Antagonist activity at human GPR99 receptor expressed in CHO-K1 cells co-expressing Galpha and Gqi5 G-protein assessed as inhibition of succinate-induced increase in intracellular calcium level at by FLIPR assay; assay type: functional, cell-based
[5] = target: T3, Succinate receptor 1 (Rattus norvegicus, UniProt Q6IYF9); experiment: Antagonist activity at rat GPR91 receptor expressed in CHO-K1 cells co-expressing Galpha and Gqi5 G-protein assessed as inhibition of succinate-induced increase in intracellular calcium level by FLIPR assay; assay type: functional, cell-based
T3 sequence (Q6IYF9 whole entry): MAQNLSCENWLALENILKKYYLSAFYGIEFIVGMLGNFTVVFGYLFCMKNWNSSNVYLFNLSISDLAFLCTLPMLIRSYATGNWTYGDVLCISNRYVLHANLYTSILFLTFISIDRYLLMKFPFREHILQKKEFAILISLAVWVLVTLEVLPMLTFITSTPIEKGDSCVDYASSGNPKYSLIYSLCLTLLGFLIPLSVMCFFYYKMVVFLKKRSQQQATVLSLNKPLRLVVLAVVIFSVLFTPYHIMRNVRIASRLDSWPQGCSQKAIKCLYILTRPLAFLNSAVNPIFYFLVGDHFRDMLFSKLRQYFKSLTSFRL

[6] = Tmax in Wistar rat at 50 mg/kg, ip; assay type: ADME, organism-based; set-up: dose 50 mg/kg, route intraperitoneal; details: in vivo
[7] = Terminal half life in Wistar rat at 5 mg/kg, iv; assay type: ADME, organism-based; set-up: dose 5 mg/kg, route intravenous; details: in vivo, read-out: beta t1/2 (converted)
[8] = Cmax in Wistar rat at 50 mg/kg, ip by LC/MS/MS analysis; assay type: ADME, organism-based; set-up: dose 50 mg/kg, route intraperitoneal; details: in vivo
[9] = Cmax in Wistar rat at 5 mg/kg, iv by LC/MS/MS analysis; assay type: ADME, organism-based; set-up: dose 5 mg/kg, route intravenous; details: in vivo
[10] = Plasma concentration in Wistar rat plasma at 50 mg/kg, ip at 8 hrs; assay type: ADME, organism-based; set-up: dose 50 mg/kg, route intraperitoneal
[11] = Plasma clearance in Wistar rat at 5 mg/kg, iv; assay type: ADME, organism-based; set-up: dose 5 mg/kg, route intravenous
[12] = AUC (0 to 8 hrs) in Wistar rat plasma at 50 mg/kg, ip; assay type: ADME, organism-based; set-up: time < 8 hr, dose 50 mg/kg, route intraperitoneal
[13] = Volume of distribution at steady state in Wistar rat at 5 mg/kg, iv; assay type: ADME, organism-based; set-up: dose 5 mg/kg, route intravenous; details: in vivo, read-out: Vdss

2-oxoglutarate receptor 1, sequence (Q96P68 whole entry, looked up): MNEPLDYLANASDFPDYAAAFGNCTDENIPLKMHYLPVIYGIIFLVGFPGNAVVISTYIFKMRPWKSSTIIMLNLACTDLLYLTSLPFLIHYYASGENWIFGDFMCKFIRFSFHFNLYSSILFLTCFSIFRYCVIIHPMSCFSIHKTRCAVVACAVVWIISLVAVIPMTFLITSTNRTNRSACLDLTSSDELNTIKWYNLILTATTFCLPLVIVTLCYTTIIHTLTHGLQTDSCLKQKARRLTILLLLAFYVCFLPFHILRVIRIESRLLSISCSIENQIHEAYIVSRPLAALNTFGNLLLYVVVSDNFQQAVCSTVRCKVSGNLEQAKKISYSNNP

SMILES	IC50 [1] [nM]	Intrinsic clearance [2] [nmol/min/mg]	further results
O=C(NCc1ccc(-c2ccc(F)c(C(F)(F)F)c2)cc1)C(O)(c1ccc(-c2ccc3cccnc3n2)cc1)C(F)(F)F (configuration not stated)	34	0.2	–
Fc1ccc(-c2nnc(CCCCc3ccc4cccnc4n3)o2)cc1C(F)(F)F	2000	0.16	–
O=C(Cc1ccc(-c2ccc3cccnc3n2)cc1)NCc1ccc(-c2ccc(F)c(Cl)c2)cc1	31	0.84	–
NC(C(=O)NCc1ccc(-c2ccc(F)c(C(F)(F)F)c2)cc1)c1ccc(-c2ccc3cccnc3n2)cc1 (configuration not stated)	330	0.15	–
C[C@H](NC(=O)C(F)(F)c1ccc(-c2ccc3cccnc3n2)cc1)c1ccc(-c2ccc(F)c(C(F)(F)F)c2)cc1	19	0.14	–
O=C(CCCc1ccc2cccnc2n1)NCc1ccc(-c2cccc(OC(F)(F)F)c2)cc1	500	0.2	–
O=C(Cc1ccc(-c2ccc3cccnc3n2)cc1)NCc1ccc(-c2ccc(F)c(C(F)(F)F)c2)cc1	75	0.28	–
FC(F)(F)c1cccc(-c2ccc(-c3nnc(CCCc4ccc5cccnc5n4)o3)cc2)c1	200	0.3	–
O=C(CCCc1ccc2cccnc2n1)NCc1nc(-c2cccc(Cl)c2)cs1	300	0.18	–
O=C(CCCc1ccc2cccnc2n1)NCc1ccc(-c2cccc(F)c2C(=O)O)cc1F	–	0.08	inhibition [3]: inactive
O=C(CCCc1ccc2cccnc2n1)NCc1csc(-c2cccc(Cl)c2)n1	700	0.4	–
CCOC(=O)c1cccc(-c2ccc(CNC(=O)CCCc3ccc4cccnc4n3)cc2)c1	–	–	inhibition [3]: inactive
O=C(CCCc1ccc2cccnc2n1)NCc1ccc(-c2cccc(Cl)c2)cc1	40	0.22	IC50 [4]: 7000 nM; IC50 [5]: 115 nM; Tmax [6]: 3.3 h; half-life [7]: 1.2 h; Cmax [8]: 17.8 µM; Cmax [9]: 82.7 µM; concentration at 8 h [10]: 15 µM; clearance [11]: 4.4 mL/min/kg; AUC(0-t) at 8 h [12]: 119 µM·h; Vd [13]: 0.2 L/kg
O=C(CCCc1ccc2cccnc2n1)NCc1ncc(-c2ccc(F)c(C(F)(F)F)c2)cn1	200	–	–
O=C(CCCc1ccc2cccnc2n1)NCc1ccc(-c2cccc(CO)c2)cc1	–	0.1	inhibition [3]: inactive
O=C(CCCc1ccc2cccnc2n1)NCc1cc(-c2ccc(F)c(Cl)c2)no1	90	0.11	–
O=C(CCCc1ccc2cccnc2n1)NCc1ccc(-c2cccc(C(=O)O)c2)cc1	–	0.03	inhibition [3]: inactive
O=C(CCCc1ccc2cccnc2n1)NCc1nnc(-c2ccc(F)c(C(F)(F)F)c2)o1	1000	–	–
CC(NC(=O)CCCc1ccc2cccnc2n1)c1ccc(-c2cccc(C(F)(F)F)c2)cc1 (configuration not stated)	16	0.25	–
Clc1cccc(-c2ccc(-c3nnc(CCCc4ccc5cccnc5n4)o3)cc2)c1	40	0.3	IC50 [4]: 5000 nM; IC50 [5]: 67 nM; half-life [7]: 0.9 h; Cmax [9]: 9.3 µM; clearance [11]: 51 mL/min/kg; Vd [13]: 1.9 L/kg
O=C(NCc1ccc(-c2ccccc2)cc1)c1ccc(-c2ccc3cccnc3n2)cc1	–	0.02	inhibition [3]: inactive
Fc1ccc(-c2ccc(-c3nnc(CCCc4ccc5cccnc5n4)[nH]3)cc2)cc1Cl	1000	0.14	–
CS(=O)(=O)c1cccc(-c2ccc(CNC(=O)CCCc3ccc4cccnc4n3)cc2)c1	–	0.1	inhibition [3]: inactive
CC(=O)Nc1cccc(-c2ccc(CNC(=O)CCCc3ccc4cccnc4n3)cc2)c1	–	–	inhibition [3]: inactive
FC(F)(F)c1ccc(-c2nnc(CCCCc3ccc4cccnc4n3)o2)cc1	3000	0.07	–
N#Cc1cccc(-c2ccc(CNC(=O)CCCc3ccc4cccnc4n3)cc2)c1	–	0.1	inhibition [3]: inactive

SMILES	IC50 [1] [nM]	Intrinsic clearance [2] [nmol/min/mg]	further results
O=C(CCCc1ccc2cccnc2n1)NCc1ccc(-c2ccc(F)c(C(F)(F)F)c2)nn1	720	–	–
CC(C)(C(=O)NCc1ccc(-c2ccc(F)c(C(F)(F)F)c2)cc1)c1ccc(-c2ccc3cccnc3n2)cc1	17	0.28	–
Clc1ccc(-c2nnc(CCCCc3ccc4cccnc4n3)o2)cc1	> 3000	–	–
COc1cccc(-c2ccc(CNC(=O)CCCc3ccc4cccnc4n3)cc2)c1	1000	0.6	–
Cc1cc(-c2ccc(CNC(=O)CCCc3ccc4cccnc4n3)cc2)ccc1Cl	300	–	–
O=C(CCCc1ccc2cccnc2n1)NCc1ccc(-c2ccc(F)c(C(F)(F)F)c2)cc1	22	0.1	–
C[C@H](NC(=O)C(O)(c1ccc(-c2ccc3cccnc3n2)cc1)C(F)(F)F)c1ccc(-c2ccc(F)c(C(F)(F)F)c2)cc1 (some centres not stated)	16	0.17	–
Fc1ccc(-c2ccc(-c3nnc(CCCc4ccc5cccnc5n4)o3)cc2)cc1Cl	100	0.2	–
O=C(CCCc1ccc2cccnc2n1)NCc1nnc(-c2ccc(F)c(C(F)(F)F)c2)s1	270	–	–
O=C(CCCc1ccc2cccnc2n1)NCc1cc(-c2cccc(Cl)c2)no1	65	0.09	–
O=C(CCCc1ccc2cccnc2n1)NCc1ccc(-c2cccc(C(F)(F)F)c2)cc1F	41	0.34	–
O=C(CCCc1ccc2cccnc2n1)NCc1ccc(-c2ccc(F)c(Cl)c2)cc1	38	0.2	–
NC(=O)c1cccc(-c2ccc(CNC(=O)CCCc3ccc4cccnc4n3)cc2)c1	–	0.04	inhibition [3]: inactive
Clc1cccc(-c2ccc(-c3nnc(CCCc4ccc5cccnc5n4)s3)cc2)c1	3000	–	–
CCc1cccc(-c2ccc(CNC(=O)CCCc3ccc4cccnc4n3)cc2)c1	65	0.4	–
O=C(O)Cc1cccc(-c2ccc(CNC(=O)CCCc3ccc4cccnc4n3)cc2)c1	–	–	inhibition [3]: inactive
C[C@H](NC(=O)CCCc1ccc2cccnc2n1)c1ccc(-c2cccc(Cl)c2)cc1	11	0.42	IC50 [4]: 2000 nM; IC50 [5]: 100 nM; half-life [7]: 0.8 h; Cmax [9]: 19 µM; clearance [11]: 14.8 mL/min/kg; Vd [13]: 0.7 L/kg
Fc1ccc(-c2nnc(CCCCc3ccc4cccnc4n3)o2)cc1OC(F)(F)F	4000	–	–
O=C(CCCc1ccc2cccnc2n1)NCc1cnc(-c2ccc(F)c(C(F)(F)F)c2)nc1	49	0.2	–
C[C@H](NC(=O)C(C)(C)c1ccc(-c2ccc3cccnc3n2)cc1)c1ccc(-c2ccc(F)c(C(F)(F)F)c2)cc1	14	0.25	–
FC(F)(F)Oc1ccc(-c2nnc(CCCCc3ccc4cccnc4n3)o2)cc1	3000	–	–
C[C@H](NC(=O)C(O)c1ccc(-c2ccc3cccnc3n2)cc1)c1ccc(-c2ccc(F)c(C(F)(F)F)c2)cc1 (some centres not stated)	18	0.2	–
FC(F)(F)c1ccc(-c2nnc(CCCCc3ccc4cccnc4n3)o2)cc1C(F)(F)F	170	0.3	–
O=C(CCCc1ccc2cccnc2n1)NCc1ccc(-c2ccccc2)cc1	1000	0.17	–
O=C(CCCc1ccc2cccnc2n1)NCc1cnn(-c2ccc(F)c(C(F)(F)F)c2)c1	210	0.18	–
